Read-outs that look alike come from different tables or passages of the source.
What was measured:
[1] = system: solid tumors; test: Phase 1 study, 144-hour (6 day) continuous infusion; assay type: in vivo, human; details: monotherapy and combination therapy
Method: A phase 1 clinical trial evaluating a 144-hour (6 day) continuous infusion of coenzyme Q10 for treatment of solid tumors is earned out. Coenzyme Q10 is administered as a monotherapy (Arm 1) or in combination with chemotherapy (Arm 2). […] The study is an open label, non-randomized dose-escalation study. The estimated enrollment is 45 patients for monotherapy (Arm 1), and up to 120 patients for combination therapy (Arm 2).
A dosing schedule of two 72-hour doses is used. For the first 72-hour dose, a loading dose over 1 hour is followed by infusion of the remainder of the dose over 71 hours at a lower rate. […]
A phase 1 clinical trial for treatment of solid tumors using coenzyme Q10 monotherapy and coenzyme Q10 in combination with chemotherapy is carried out. […] Dose limiting toxicities are assessed during Cycle 1.
Assessments of the antitumor activity of coenzyme Q10 are performed at the end of Cycle 2 and every 2 cycles thereafter using standard techniques such as computerized tomography (CT) or magnetic resonance imaging (MRI) for patients with measurable disease. Response is evaluated using Response Evaluation Criteria in Solid Tumors (RECIST) v1.1. […] Once a dose level of coenzyme Q10 monotherapy is evaluated and the CRC determines it safe to escalate to the next dose level, Cohort 1 of Treatment Arm 2 of coenzyme Q10 in combination with chemotherapy opens to accrual. […]

[2] = Method: In the Phase 1a portion of the trial, patients who meet eligibility parameters receive 2 consecutive 48-hour infusions of coenzyme Q10 twice weekly on Monday and Wednesday (i.e., Days 1, 3, 8, 10, 15, 17, 22, and 24), essentially receiving coenzyme Q10 treatment for 96 hours per week of each 28-day cycle. At each dose level of Arm 1 and Arm 2, patients are treated for either 8 hours at minimum of outpatient monitoring or inpatient monitoring for the first 24-hrs of the first infusion of Cycle 1. All other treatments are administered in an outpatient setting. Dose limiting toxicities are assessed during Cycle 1.
The study is a standard 3+3 dose escalation design with the dose escalated in successive cohorts of 3 to 6 patients each. Toxicity at each dose level is graded according to National Cancer Institute Common Terminology Criteria for Adverse Events (CTCAE v4.02). Safety oversight is provided by the Cohort Review Committee (CRC). The CRC reviews and confirms all DLTs and monitor safety throughout the study (including Arm 2).
The 2 doses are administered over 4 consecutive days, i.e., the first dose on Monday-Wednesday and the second dose on Wednesday-Friday of each week. The study drug is administered undiluted via a central venous access device and the infusion rate is controlled by a programmable ambulatory infusion pump such as the CADD Prizm VIP (model 6101) ambulatory pump.
At each dose level of Arm 1 and Arm 2, patients are treated for either 8 hours at minimum of outpatient monitoring or inpatient monitoring for the first 24-hrs of the first infusion of Cycle 1. Patients are monitored for dose-limiting toxicity (DLT) or an AE that requires prolonged hospitalization. If no reaction to coenzyme Q10 develops, the patient will be discharged.
For the second dose of each week (i.e., on Days 3, 10, 17, and 24 of the cycle) the total dose volume are given over 48 hours with no loading dose as indicated in Table 6 below. Coenzyme Q10 Nanosuspension for Injection Dose Cohorts (Arm 1; Monotherapy).

[3] = in vivo
Method: The first-in-human Phase 1 study with coenzyme Q10 nanosuspension (40 mg/ml) was conducted in 50 patients with advanced solid tumors. The objectives were to assess the safety, maximum tolerated dose, PK and PD of coenzyme Q10, specifically a 4% coenzyme Q10 nanosuspension formulation (as described in WO 2011/112900, the entire contents of which are expressly incorporated herein by reference), administered as a 4-hour IV infusion 3 times weekly in 28-day cycles. […] Plasma concentration profiles and PK parameters were determined from blood samples collected pre-dose and at intervals to 48 hours post-dose.

[4] = system: AML or ALL; test: Phase 1a/b study, 18 day continuous infusion in relapsed/refractory AML or ALL; details: at the end of the study
Method: This study is conducted in the inpatient setting for the first 10 patients enrolled on monotherapy to closely monitor the coagulation profile, gain experience and collect safety data during the first full cycle of therapy (21 days) and at least 30 days of post-dosing follow-up Platelet count and coagulation parameters are obtained every day in the inpatient setting. […] Treatment may continue in either the inpatient and/or outpatient setting for subsequent patients enrolled on study. Platelet count and coagulation are monitored at least 3 times/week in the outpatient setting and daily in the inpatient setting.
Each cycle of monotherapy is 21 days in length. […] Each cycle of combination therapy is 28 days in length. […] Patients who experience a DLT during cycle 1 of monotherapy or cycle 1 of combination therapy are discontinued.
On Day 1 of each cycle (i.e., Monday) the dose consists of an accelerated rate of infusion of 25% of the total dose volume over 1 hour with the remaining 75% of the dose volume infused over 23 hours. Subsequent daily doses (Days 2 through 18) are infused uniformly over 24 hours (no accelerated rate in the first hour). […] The principal investigator will consult with the Medical Monitor and the Chair of the DSMB to determine the appropriate dose level for each patient.

[5] = combination with gemcitabine, Dose level 1 (50 mg/kg)

coenzyme Q10
clinical and/or radiographic responses ([1]; at least some patients): Clinical and/or radiographic responses are seen | safety and tolerability ([1]; six day continuous infusion): safe and well tolerated | safety issues ([2]; combination with 5-Fluorouracil, Dose level 1 (50 mg/kg)): No 5FU-related issued | dose level evaluation ([2]; combination with 5-Fluorouracil, Dose level 2 (66 mg/kg)): Dose level cleared | safety issues ([2]; combination with docetaxel, Dose level 1 (50 mg/kg)): No docetaxel-related issued | issues or DLTs ([2]; combination with docetaxel, Dose level 2 (66 mg/kg)): No issues or DLTs | issues or DLTs ([2]; combination with docetaxel, Dose level 3 (kg mg/kg), evaluation ongoing): No issues or DLTs | dose-limiting toxicity (DLT) [2, 5]: no DLT | thrombocytopenia (gemcitabine-related adverse event) [2, 5]: Mild to moderate thrombocytopenia | bleeding events ([2]; continuous infusion protocol): No bleeding events were reported | coagulation abnormalities ([2]; continuous infusion protocol with aggressive pre-loading or treatment with Vitamin K): minimal coagulation abnormalities | overall safety ([2]; current dose levels, continuous infusion): safe at the current levels | dose-limiting toxicity (DLT) ([2]; monotherapy Dose Level 1 (66 mg/kg), 9 subjects, grade 3 GGT): 1 DLT | dose-limiting toxicity (DLT) ([2]; monotherapy Dose Level 2 (88 mg/kg), 4 subjects): 0 DLT | dose-limiting toxicity (DLT) ([2]; monotherapy Dose Level 3 (110 mg/kg), 4 subjects, evaluation ongoing): 0 DLT | safety and tolerability ([2]; monotherapy and combination therapy, initial results): safe and well tolerated | triglycerides ([2]; no clinical significance): Transient elevation of triglycerides | adverse events with increased infusion duration ([2]; vs four hour infusion at higher rate, expected at the end of the ongoing study): decrease adverse events | Tmax and Cmax ([3]; human): generally associated with the end of the infusion | AUC0-168 (estimated weekly) ([3]; human, 176 mg/kg): 68,787 μg*hr/mL | Cmax (estimated weekly) ([3]; human, 176 mg/kg): 1,558 μg/mL | AUC0-168 (estimated weekly) ([3]; human, 235 mg/kg): 74,640 μg*hr/mL | Cmax (estimated weekly) ([3]; human, 235 mg/kg): 1,592 μg/mL | AUC0-168 (estimated weekly) ([3]; human, 313 mg/kg): 125,953 μg*hr/mL | Cmax (estimated weekly) ([3]; human, 313 mg/kg): 2,198 μg/mL | t1/2 ([3]; human, iv): 2.18 to 18.0 h | accumulation with increasing duration of dosing [3]: no apparent accumulation | dose-proportionality ([3]; 22.5 mg/kg): dose-proportionality appeared linear | outcomes by standard criteria ([4]; e.g., decreased tumor burden): clinically relevant outcomes | adverse events with increased infusion duration ([4]; vs four hour infusion at higher rate): decrease adverse events

— patent US12653776B2, “Methods of treatment of cancer by continuous infusion of coenzyme Q10” (priority 2013, dated 2026)
